Where a name gives a salt, the structure may show the parent alone.
Row | SMILES | melting point
1 | Cc1cc(Cl)ccc1-c1cccc2c1OC(CN)CN2C (racemic) (as salt: hydrochloride) [Example 2, 1-[8-(4-Chloro-2-methylphenyl)-4-methyl-3,4-dihydro-2H-1,4-benzoxazin-2-yl]methanamine] | 109 to 112 °C
2 | NC[C@@H]1CNc2cccc(-c3ccccc3Cl)c2O1 (as salt: hydrochloride) [Example 40, 1-[(2R)-8-(2-chlorophenyl)-3,4-dihydro-2H-1,4-benzoxazin-2-yl]methanamine] | 135 °C (dec.)
3 | NC[C@H]1CNc2cccc(-c3ccccc3C(F)(F)F)c2O1 (as salt: hydrochloride) [Example 47, 1-{(2S)-8-[2-(trifluoromethyl)phenyl]-3,4-dihydro-2H-1,4-benzoxazin-2-yl}methanamine] | 179 °C (dec.)
4 | COc1ccc(-c2cccc3c2O[C@@H](CN)CN3)c(C)c1 (as salt: hydrochloride) [Example 50, 1-[(2S)-8-(4-methoxy-2-methylphenyl)-3,4-dihydro-2H-1,4-benzoxazin-2-yl]methanamine] | 222 °C (dec.)
5 | Cc1ccccc1-c1cccc2c1OC(CN)CN2 (racemic) (as salt: hydrochloride) [Example 17, 1-[8-(2-Methylphenyl)-3,4-dihydro-2H-1,4-benzoxazin-2-yl]methanamine] | 195 to 197 °C
6 | NCC1COc2cc(F)cc(-c3ccccc3F)c2N1 (racemic) (as salt: hydrochloride) [Example 62, 1-[7-fluoro-5-(2-fluorophenyl)-3,4-dihydro-2H-1,4-benzoxazin-3-yl]methanamine] | 77 °C (dec.)
7 | NCC1COc2cc(F)cc(-c3ccccc3Cl)c2N1 (racemic) (as salt: hydrochloride) [Example 57, 1-[5-(2-chlorophenyl)-7-fluoro-3,4-dihydro-2H-1,4-benzoxazin-3-yl]methanamine] | 86 °C (dec.)
8 | COc1ccc(-c2cc(F)cc3c2NC(CN)CO3)cc1 (racemic) (as salt: hydrochloride) [Example 61, 1-[7-fluoro-5-(4-methoxyphenyl)-3,4-dihydro-2H-1,4-benzoxazin-3-yl]methanamine] | 72 °C (dec.)
9 | COc1ccc(-c2cccc3c2OC(CN)CN3C)c(C)c1 (racemic) (as salt: hydrochloride) [Example 5, 1-[8-(4-Methoxy-2-methylphenyl)-4-methyl-3,4-dihydro-2H-1,4-benzoxazin-2-yl]methanamine] | 85 °C (dec.)
10 | CN1CC(CN)Oc2c(-c3ccccc3F)cccc21 (racemic) (as salt: hydrochloride) [Example 7, 1-[8-(2-Fluorophenyl)-4-methyl-3,4-dihydro-2H-1,4-benzoxazin-2-yl]methanamine] | 104 °C (dec.)
11 | CN1CC(CN)Oc2c(-c3cc(Cl)ccc3Cl)cccc21 (racemic) (as salt: hydrochloride) [Example 13, 1-[8-(2,5-Dichlorophenyl)-4-methyl-3,4-dihydro-2H-1,4-benzoxazin-2-yl]methanamine] | 90 °C (dec.)
12 | NC[C@@H]1CNc2cccc(-c3cc(Cl)ccc3Cl)c2O1 (as salt: hydrochloride) [Example 53, 1-[(2R)-8-(2,5-dichlorophenyl)-3,4-dihydro-2H-1,4-benzoxazin-2-yl]methanamine] | 130 °C (dec.)
13 | Cc1ccc(-c2cc(F)cc3c2NC(CN)CO3)c(C(F)(F)F)c1 (racemic) (as salt: hydrochloride) [Example 60, 1-{7-fluoro-5-[4-methyl-2-(trifluoromethyl)phenyl]-3,4-dihydro-2H-1,4-benzoxazin-3-yl}methanamine] | 86 °C (dec.)
14 | COc1ccc(-c2cccc3c2OC(CN)CN3C)cc1 (racemic) (as salt: hydrochloride) [Example 6, 1-[8-(4-Methoxyphenyl)-4-methyl-3,4-dihydro-2H-1,4-benzoxazin-2-yl]methanamine] | 90 to 92 °C
15 | NCC1COc2cc(Cl)cc(-c3ccccc3F)c2N1 (racemic) (as salt: hydrochloride) [Example 33, 1-[7-chloro-5-(2-fluorophenyl)-3,4-dihydro-2H-1,4-benzoxazin-3-yl]methanamine] | 95 °C (dec.)
16 | CN1CC(CN)Oc2c(-c3ccccc3Cl)cccc21 (racemic) (as salt: hydrochloride) [Example 11, 1-[8-(2-Chlorophenyl)-4-methyl-3,4-dihydro-2H-1,4-benzoxazin-2-yl]methanamine] | 80 °C (dec.)
17 | NC[C@@H]1CNc2cccc(-c3ccccc3F)c2O1 (as salt: hydrochloride) [Example 43, 1-[(2R)-8-(2-fluorophenyl)-3,4-dihydro-2H-1,4-benzoxazin-2-yl]methanamine] | 186 °C (dec.)
18 | COc1ccc(-c2cc(F)cc3c2NC(CN)CO3)c(Cl)c1 (racemic) (as salt: hydrochloride) [Example 59, 1-[5-(2-chloro-4-methoxyphenyl)-7-fluoro-3,4-dihydro-2H-1,4-benzoxazin-3-yl]methanamine] | 84 °C (dec.)

Row | SMILES | melting point
19 | NCC1CNc2cccc(-c3ccccc3Cl)c2O1 (racemic) (as salt: hydrochloride) [Example 16, 1-[8-(2-Chlorophenyl)-3,4-dihydro-2H-1,4-benzoxazin-2-yl]methanamine] | 140 °C (dec.)
20 | COc1ccc(-c2cccc3c2O[C@H](CN)CN3)c(Cl)c1 (as salt: hydrochloride) [Example 46, 1-[(2R)-8-(2-chloro-4-methoxyphenyl)-3,4-dihydro-2H-1,4-benzoxazin-2-yl]methanamine] | 211 °C (dec.)
21 | CN1CC(CN)Oc2c(-c3ccccc3)cccc21 (racemic) (as salt: hydrochloride) [Example 9, 1-(4-Methyl-8-phenyl-3,4-dihydro-2H-1,4-benzoxazin-2-yl)methanamine] | 80 °C (dec.)
22 | COc1ccc(-c2cccc3c2O[C@H](CN)CN3)c(C)c1 (as salt: hydrochloride) [Example 44, 1-[(2R)-8-(4-methoxy-2-methylphenyl)-3,4-dihydro-2H-1,4-benzoxazin-2-yl]methanamine] | 221 °C (dec.)
23 | COc1ccc(-c2cc(Cl)cc3c2NC(CN)CO3)cc1 (racemic) (as salt: hydrochloride) [Example 26, 1-[7-Chloro-5-(4-methoxyphenyl)-3,4-dihydro-2H-1,4-benzoxazin-3-yl]methanamine] | 101 °C (dec.)
24 | Cc1cc(Cl)ccc1-c1cc(Cl)cc2c1NC(CN)CO2 (racemic) (as salt: hydrochloride) [Example 35, 1-[7-chloro-5-(4-chloro-2-methylphenyl)-3,4-dihydro-2H-1,4-benzoxazin-3-yl]methanamine] | 102 °C (dec.)
25 | NC[C@@H]1CNc2cccc(-c3ccccc3C(F)(F)F)c2O1 (as salt: hydrochloride) [Example 41, 1-{(2R)-8-[2-(trifluoromethyl)phenyl]-3,4-dihydro-2H-1,4-benzoxazin-2-yl}methanamine] | 180 °C (dec.)
26 | NCC1CNc2cccc(-c3ccccc3C(F)(F)F)c2O1 (racemic) (as salt: hydrochloride) [Example 22, 1-{8-[2-(Trifluoromethyl)phenyl]-3,4-dihydro-2H-1,4-benzoxazin-2-yl}methanamine] | 185 to 187 °C
27 | Cc1ccccc1-c1cc(Cl)cc2c1NC(CN)CO2 (racemic) (as salt: hydrochloride) [Example 30, 1-[7-chloro-5-(2-methylphenyl)-3,4-dihydro-2H-1,4-benzoxazin-3-yl]methanamine] | 86 °C (dec.)
28 | COc1ccc(-c2cccc3c2O[C@@H](CN)CN3)cc1 (as salt: hydrochloride) [Example 51, 1-[(2S)-8-(4-methoxyphenyl)-3,4-dihydro-2H-1,4-benzoxazin-2-yl]methanamine] | 198 °C (dec.)
29 | Cc1cc(Cl)ccc1-c1cccc2c1OC(CN)CN2 (racemic) (as salt: hydrochloride) [Example 20, 1-[8-(4-chloro-2-methylphenyl)-3,4-dihydro-2H-1,4-benzoxazin-2-yl]methanamine] | 192 to 194 °C
30 | CCN1CC(CN)Oc2c(-c3ccccc3Cl)cccc21 (racemic) (as salt: hydrochloride) [Example 19, 1-[8-(2-Chlorophenyl)-4-ethyl-3,4-dihydro-2H-1,4-benzoxazin-2-yl]methanamine] | 105 to 106 °C
31 | NCC1CNc2cccc(-c3ccc(C(F)(F)F)cc3C(F)(F)F)c2O1 (racemic) (as salt: hydrochloride) [Example 23, 1-{8-[2,4-Bis(trifluoromethyl)phenyl]-3,4-dihydro-2H-1,4-benzoxazin-2-yl}methanamine] | 192 to 194 °C
32 | CN1CC(CN)Oc2c(-c3cccc(Cl)c3)cccc21 (racemic) (as salt: hydrochloride) [Example 66, 1-[8-(3-chlorophenyl)-4-methyl-3,4-dihydro-2H-1,4-benzoxazin-2-yl]methanamine] | 134 °C (dec.)
33 | NCC1COc2cc(F)cc(-c3cccc(Cl)c3)c2N1 (racemic) (as salt: hydrochloride) [Example 65, 1-[5-(3-chlorophenyl)-7-fluoro-3,4-dihydro-2H-1,4-benzoxazin-3-yl]methanamine] | 76 °C (dec.)
34 | NCC1CNc2cccc(-c3cc(Cl)ccc3Cl)c2O1 (racemic) (as salt: hydrochloride) [Example 14, 1-[8-(2,5-Dichlorophenyl)-3,4-dihydro-2H-1,4-benzoxazin-2-yl]methanamine] | 130 °C (dec.)
35 | COc1ccc(-c2cccc3c2O[C@H](CN)CN3)cc1 (as salt: hydrochloride) [Example 45, 1-[(2R)-8-(4-methoxyphenyl)-3,4-dihydro-2H-1,4-benzoxazin-2-yl]methanamine] | 196 °C (dec.)
36 | NCC1COc2cc(F)cc(-c3ccccc3C(F)(F)F)c2N1 (racemic) (as salt: hydrochloride) [Example 55, 1-{7-fluoro-5-[2-(trifluoromethyl)phenyl]-3,4-dihydro-2H-1,4-benzoxazin-3-yl}methanamine] | 99 °C (dec.)
